Patent US20240074996A1, “C5 KETONE COMPOSITIONS AND RELATED METHODS FOR TREATING METABOLIC DYSFUNCTION” (Keto Innovations, LLC, priority 2018, published 2024)

Columns and labels:
[1] = Blood ketones after oral BHP (Example 3); assay type: in vivo, human; settings: 10 g BHP oral in water
Procedure: (§1) Subjects consumed 10 grams of BHP dissolved in 12 ounces of water. Subjects were then monitored for 80 minutes following drinking the mixture. Blood glucose, ketones, and lactate were taken at 0, 20, 40, 60, and 80 minutes.
(§2) Blood ketones were measured via finger prick using an Abbott Precision device which determines mMol of BHB. Blood glucose was measured using Abbott Precision glucose strips and was measured in mg/dL. Blood lactate was measured using an Abbott Precision device which determines mMol of lactate.

[2] = Visual analog scale of well-being after BHP or BKP (Example 1); assay type: in vivo, human; settings: scale 1-10, 10 g oral, 12 h fast
Procedure: (§3) Two (2) healthy, male subjects reported to the laboratory following a 12 hour overnight fast. Subjects were instructed to randomly consume either 10 grams of BHP or 10 grams BKP dissolved in 12 ounces of water. Subjects were then monitored for 150 minutes following drinking the mixture. Blood glucose, ketones, and visual analog scales (VAS) of well-being, energy, and focus were taken at 0, 30, 60, 90, 120, and 150 minutes. VAS scales consisted of a continuum of numbers from 1-10 with 1 being extremely low and 10 being extremely high.

[3] = Blood lactate after oral BHP, safety (Example 3); assay type: in vivo, human; settings: 10 g BHP oral in water
Procedure: The purpose of this experiment was to determine safety associated with ingestion of exogenous C5 ketones with regard to hyperlactemia, lactic acidosis, or ketoacidosis that sometimes happens with medications, as all 3 are associated with morbidity and mortality.
as §1, §2

[4] = short-term experiments; large supply of propionyl-CoA; cited from earlier work
[5] = Blood glucose after oral BHP (Example 3); assay type: in vivo, human; settings: 10 g BHP oral in water
Procedure: as §1, §2

[6] = Visual analog scale of energy after BHP or BKP (Example 1); assay type: in vivo, human; settings: scale 1-10, 10 g oral, 12 h fast
Procedure: as §3

[7] = Blood glucose after oral BHP or BKP (Example 1); assay type: in vivo, human; settings: 10 g oral in water, 12 h fast
Procedure: as §3
(§4) Blood ketones were measured via finger prick using an Abbott Precision device which determines mMol of BHB. Blood glucose was measured using Abbott Precision glucose strips and was measured in mg/dL.

[8] = Visual analog scale of focus after BHP or BKP (Example 1); assay type: in vivo, human; settings: scale 1-10, 10 g oral, 12 h fast
Procedure: as §3

[9] = Blood ketones (BHB, Abbott Precision) after oral BHP or BKP (Example 1); assay type: in vivo, human; settings: 10 g oral in water, 12 h fast
Procedure: as §3, §4

CCC(O)CC(=O)O (stereo not drawn) [BHP, β-hydroxypentanoate]
Blood Ketones ([1]; 0 min.): 0.3 mmol/L
Blood Ketones ([1]; 20 min.): 0.6 mmol/L
Blood Ketones ([1]; 40 min.): 1.8 mmol/L
Blood Ketones ([1]; 60 min.): 1.1 mmol/L
Blood Ketones ([1]; 80 min.): 0.5 mmol/L
VAS of Well-Being ([2]; Combined, 0 min.): 6
VAS of Well-Being ([2]; Combined, 30 min.): 5
VAS of Well-Being ([2]; Combined, 60 min.): 4.5
VAS of Well-Being ([2]; Combined, 90 min.): 6
VAS of Well-Being ([2]; Combined, 120 min.): 4.5
VAS of Well-Being ([2]; Combined, 150 min.): 5
VAS of Well-Being ([2]; Subject 1, 0 min.): 7
VAS of Well-Being ([2]; Subject 1, 30 min.): 5
VAS of Well-Being ([2]; Subject 1, 60 min.): 5
VAS of Well-Being ([2]; Subject 1, 90 min.): 7
VAS of Well-Being ([2]; Subject 1, 120 min.): 5
VAS of Well-Being ([2]; Subject 1, 150 min.): 6
VAS of Well-Being ([2]; Subject 2, 0 min.): 5
VAS of Well-Being ([2]; Subject 2, 30 min.): 5
VAS of Well-Being ([2]; Subject 2, 60 min.): 4
VAS of Well-Being ([2]; Subject 2, 90 min.): 5
VAS of Well-Being ([2]; Subject 2, 120 min.): 4
VAS of Well-Being ([2]; Subject 2, 150 min.): 4
Blood Lactate ([3]; 0 min.): 1.3 mmol/L
Blood Lactate ([3]; 20 min.): 1.4 mmol/L
Blood Lactate ([3]; 40 min.): 0.7 mmol/L
Blood Lactate ([3]; 60 min.): 0.9 mmol/L
Blood Lactate ([3]; 80 min.): 1.1 mmol/L
Metabolism and tolerance in animals [4]: well metabolized in animals without apparent intolerance
Blood Glucose ([5]; 0 min.): 99.5 mg/dL
Blood Glucose ([5]; 20 min.): 103 mg/dL
Blood Glucose ([5]; 40 min.): 102.5 mg/dL
Blood Glucose ([5]; 60 min.): 94.5 mg/dL
Blood Glucose ([5]; 80 min.): 92.5 mg/dL
VAS of Energy ([6]; Combined, 0 min.): 4
VAS of Energy ([6]; Combined, 30 min.): 3.5
VAS of Energy ([6]; Combined, 60 min.): 3.5
VAS of Energy ([6]; Combined, 90 min.): 5
VAS of Energy ([6]; Combined, 120 min.): 4.5
VAS of Energy ([6]; Combined, 150 min.): 6
VAS of Energy ([6]; Subject 1, 0 min.): 5
VAS of Energy ([6]; Subject 1, 30 min.): 4
VAS of Energy ([6]; Subject 1, 60 min.): 5
VAS of Energy ([6]; Subject 1, 90 min.): 7
VAS of Energy ([6]; Subject 1, 120 min.): 5
VAS of Energy ([6]; Subject 1, 150 min.): 7
VAS of Energy ([6]; Subject 2, 0 min.): 3
VAS of Energy ([6]; Subject 2, 30 min.): 3
VAS of Energy ([6]; Subject 2, 60 min.): 2
VAS of Energy ([6]; Subject 2, 90 min.): 3
VAS of Energy ([6]; Subject 2, 120 min.): 4
VAS of Energy ([6]; Subject 2, 150 min.): 5
Blood glucose levels ([7]; Combined, 0 min.): 84 mg/dL
Blood glucose levels ([7]; Combined, 30 min.): 80.5 mg/dL
Blood glucose levels ([7]; Combined, 60 min.): 70.5 mg/dL
Blood glucose levels ([7]; Combined, 90 min.): 79 mg/dL
Blood glucose levels ([7]; Combined, 120 min.): 83.5 mg/dL
Blood glucose levels ([7]; Combined, 150 min.): 90.5 mg/dL
Blood glucose levels ([7]; Subject 1, 0 min.): 84 mg/dL
Blood glucose levels ([7]; Subject 1, 30 min.): 85 mg/dL
Blood glucose levels ([7]; Subject 1, 60 min.): 75 mg/dL
Blood glucose levels ([7]; Subject 1, 90 min.): 79 mg/dL
Blood glucose levels ([7]; Subject 1, 120 min.): 86 mg/dL
Blood glucose levels ([7]; Subject 1, 150 min.): 91 mg/dL
Blood glucose levels ([7]; Subject 2, 0 min.): 84 mg/dL
Blood glucose levels ([7]; Subject 2, 30 min.): 76 mg/dL
Blood glucose levels ([7]; Subject 2, 60 min.): 66 mg/dL
Blood glucose levels ([7]; Subject 2, 90 min.): 79 mg/dL
Blood glucose levels ([7]; Subject 2, 120 min.): 81 mg/dL
Blood glucose levels ([7]; Subject 2, 150 min.): 90 mg/dL
VAS of Focus ([8]; Combined, 0 min.): 3.5
VAS of Focus ([8]; Combined, 30 min.): 4
VAS of Focus ([8]; Combined, 60 min.): 3
VAS of Focus ([8]; Combined, 90 min.): 3
VAS of Focus ([8]; Combined, 120 min.): 5
VAS of Focus ([8]; Combined, 150 min.): 5
VAS of Focus ([8]; Subject 1, 0 min.): 5
VAS of Focus ([8]; Subject 1, 30 min.): 5
VAS of Focus ([8]; Subject 1, 60 min.): 5
VAS of Focus ([8]; Subject 1, 90 min.): 5
VAS of Focus ([8]; Subject 1, 120 min.): 5
VAS of Focus ([8]; Subject 1, 150 min.): 5
VAS of Focus ([8]; Subject 2, 0 min.): 2
VAS of Focus ([8]; Subject 2, 30 min.): 3
VAS of Focus ([8]; Subject 2, 60 min.): 3
VAS of Focus ([8]; Subject 2, 90 min.): 3
VAS of Focus ([8]; Subject 2, 120 min.): 5
VAS of Focus ([8]; Subject 2, 150 min.): 5
Blood ketone levels ([9]; Combined, 0 min.): 0.1 mmol
Blood ketone levels ([9]; Combined, 30 min.): 1.6 mmol
Blood ketone levels ([9]; Combined, 60 min.): 0.55 mmol
Blood ketone levels ([9]; Combined, 90 min.): 0.2 mmol
Blood ketone levels ([9]; Combined, 120 min.): 0.3 mmol
Blood ketone levels ([9]; Combined, 150 min.): 0.2 mmol
Blood ketone levels ([9]; Subject 1, 0 min.): 0.1 mmol
Blood ketone levels ([9]; Subject 1, 30 min.): 1.8 mmol
Blood ketone levels ([9]; Subject 1, 60 min.): 0.7 mmol
Blood ketone levels ([9]; Subject 1, 90 min.): 0.2 mmol
Blood ketone levels ([9]; Subject 1, 120 min.): 0.2 mmol
Blood ketone levels ([9]; Subject 1, 150 min.): 0.2 mmol
Blood ketone levels ([9]; Subject 2, 0 min.): 0.1 mmol
Blood ketone levels ([9]; Subject 2, 30 min.): 1.4 mmol
Blood ketone levels ([9]; Subject 2, 60 min.): 0.4 mmol
Blood ketone levels ([9]; Subject 2, 90 min.): 0.2 mmol
Blood ketone levels ([9]; Subject 2, 120 min.): 0.4 mmol
Blood ketone levels ([9]; Subject 2, 150 min.): 0.2 mmol
